Experimental data published in patent US20020019336A1, “Sustained release drug compositions” (priority 2000, published 2002).

Tested on: neovascularization
Assay: neovascularization after subcutaneous injection or implantation in rats
Assay type: in vivo
Settings: back subcutaneous tissue, seven days after administration, 1 μg bFGF
Experimental: The compositions listed in Table 1 below were generated essentially according to Example 9, with modifications as indicated.
All compositions, including controls, were injected or implanted into the back subcutaneous tissue of rats. It was known that bFGF promotes neovascularization. Seven days after administration, each rat was evaluated for neovascularization at the area peripheral to the site of injection or implantation.
To distinguish newly synthesized blood vessels from pre-existing ones, lipid microspheres were injected into […] just superficial to the pre-existing capillary bed early in the experiment (at day 0). At the end of the experiment, the neovascular capillaries, if any, would reside superficial to the microspheres. Thus, new capillaries were easily identified by seeing whether there was vascularization above (superficial to) the microspheres at the end of the experiment.

Substance: basic fibroblast growth factor [bFGF alone]
- neovascularization at area peripheral to site of injection or implantation: no neovascularization
